Results on 14 compounds are retold here after patent publication US20260146035A1, “FUSED BICYCLIC COMPOUNDS AND THEIR USE AS MER AND AXL INHIBITORS” (DONG-A ST CO., LTD., priority 2022, published 2026).

As a reminder, the IC50 is the concentration needed to halve the response being measured.

For one test, the target named is T1, human MER (528-end) (Homo sapiens, UniProt Q12866).
T1 construct: human MER (528-end); purchased Camnabio, Japan
T1 sequence (Q12866 528-999 limits assumed): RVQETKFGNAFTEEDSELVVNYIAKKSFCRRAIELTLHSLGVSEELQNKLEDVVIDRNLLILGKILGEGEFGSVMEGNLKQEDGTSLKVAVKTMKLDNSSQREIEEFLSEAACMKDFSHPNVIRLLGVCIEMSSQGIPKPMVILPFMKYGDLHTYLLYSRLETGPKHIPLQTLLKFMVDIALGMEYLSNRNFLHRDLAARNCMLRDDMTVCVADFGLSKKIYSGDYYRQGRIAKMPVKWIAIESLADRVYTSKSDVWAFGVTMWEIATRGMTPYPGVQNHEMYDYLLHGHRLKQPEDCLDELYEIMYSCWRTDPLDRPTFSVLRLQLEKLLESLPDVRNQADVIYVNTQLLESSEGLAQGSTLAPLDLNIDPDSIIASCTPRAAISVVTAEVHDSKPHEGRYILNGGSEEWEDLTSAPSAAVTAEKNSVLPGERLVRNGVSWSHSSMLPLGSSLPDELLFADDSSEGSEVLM
Kind of test: HTRF kinase activity biochemical assay, MER. The settings on record: 10 μM ATP, 30 minutes pre-incubation; read-out: HTRF MERTK IC50. As to the method: (§1) For the SAR (structure-activity relationship) and compound screening, HTRF (Homogeneous Time Resolved Fluorescence) kinase activity assay was employed for all MER, AXL and TYRO3 kinases using Cisbio HTRF® KinEASE™-TK kit (Cisbio, USA). The kit included biotin-labeled TK substrate, streptavidin-XL665, Eu3+-cryptate-labeled TK antibody and HTRF® Detection buffer. There are two main steps in the kinase assay: kinase reaction and detection of phosphorylated substrate. The reaction was carried out in white low volume 384-well plate (Corning, USA) with 25 nL compound in dimethyl sulfoxide in each well. […] After 1 hour incubation at room temperature, the fluorescence intensity was measured with Envision[…] plate reader (PerkinElmer, USA). Upon excitation at 340 nm by UV, the energy from Eu3+ donor of the antibody is transferred to the FRET acceptor XL665, and […] emits light at 665 nm.

A further test deals with T2, human AXL (473-end) (Homo sapiens, UniProt P30530).
T2 construct: human AXL (473-end); purchased SignalChem, Canada
T2 sequence (P30530 473-894 limits assumed): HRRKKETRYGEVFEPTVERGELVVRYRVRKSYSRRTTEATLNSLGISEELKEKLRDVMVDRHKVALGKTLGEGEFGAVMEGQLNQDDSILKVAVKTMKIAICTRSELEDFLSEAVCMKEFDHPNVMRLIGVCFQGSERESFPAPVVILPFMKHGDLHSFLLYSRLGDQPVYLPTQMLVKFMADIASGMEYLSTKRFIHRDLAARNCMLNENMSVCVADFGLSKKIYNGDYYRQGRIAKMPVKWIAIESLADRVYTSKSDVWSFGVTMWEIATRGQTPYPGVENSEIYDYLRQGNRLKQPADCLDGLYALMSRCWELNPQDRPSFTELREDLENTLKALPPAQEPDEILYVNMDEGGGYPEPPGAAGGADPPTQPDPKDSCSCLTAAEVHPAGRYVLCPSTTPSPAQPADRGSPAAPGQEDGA
Kind of test: HTRF kinase activity biochemical assay, AXL. The settings on record: 10 μM ATP, 30 minutes pre-incubation. As to the method: as §1
A general note: Time-resolved FRET reads energy transfer from a long-lived donor to a nearby acceptor.

For a further test, the target named is T3, human TYRO3 (455-end) (Homo sapiens, UniProt Q06418).
T3 construct: TYRO3 (455-end); purchased SignalChem, Canada
T3 sequence (Q06418 455-890 limits assumed): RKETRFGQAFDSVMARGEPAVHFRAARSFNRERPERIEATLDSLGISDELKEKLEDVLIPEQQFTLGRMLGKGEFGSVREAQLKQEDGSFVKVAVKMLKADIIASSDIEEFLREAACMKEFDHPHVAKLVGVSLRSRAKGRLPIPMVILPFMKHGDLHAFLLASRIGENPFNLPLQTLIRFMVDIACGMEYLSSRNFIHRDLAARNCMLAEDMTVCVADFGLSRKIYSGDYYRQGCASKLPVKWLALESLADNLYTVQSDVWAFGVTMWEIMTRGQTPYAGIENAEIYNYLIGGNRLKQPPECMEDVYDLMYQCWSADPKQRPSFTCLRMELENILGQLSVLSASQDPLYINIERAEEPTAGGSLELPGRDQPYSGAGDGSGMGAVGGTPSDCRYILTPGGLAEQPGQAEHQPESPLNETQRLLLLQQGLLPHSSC
The experiment in a line: HTRF kinase activity biochemical assay, TYRO3. Particulars: 10 μM ATP, 30 minutes pre-incubation; read-out: HTRF TYRO IC50. The method, then: as §1

Consider `CN1CCC(c2c[nH]c3cc(-c4ccc(CO[C@H]5CCC[C@@H]5NC(=O)c5cc(-c6cnn(C)c6)cnc5N)cc4)ccc23)CC1` [Example 15, 2-amino-N-[(1S,2S)-2-({4-[3-(1-methylpiperidin-4-yl)-1H-indol-6-yl]phenyl}methoxy)cyclopentyl]-5-(1-methyl-1H-pyrazol-4-yl)pyridine-3-carboxamide], for which the values for the IC50 at human MER (528-end), against human AXL (473-end) and at human TYRO3 (455-end) were 10 to 100 nM, 100 to 1000 nM and over 1000 nM, respectively.
Take `Cn1cc(-c2cnc(N)c(C(=O)N[C@H]3COC[C@@H]3OCc3ccc(-c4ccc5c(ccn5C)c4)cc3)c2)cn1` [Example 16, 2-amino-N-[(3S,4R)-4-{[4-(1-methyl-1H-indol-5-yl)phenyl]methoxy}oxolan-3-yl]-5-(1-methyl-1H-pyrazol-4-yl)pyridine-3-carboxamide]: the IC50 on human MER (528-end) was 10 to 100 nM; against human AXL (473-end), 10 to 100 nM; at human TYRO3 (455-end) it was over 1000 nM.
Consider `CN1CC(C)(C)c2cc(-c3ccc(CO[C@H]4CCC[C@@H]4NC(=O)c4cc(-c5cnn(C)c5)cnc4N)cc3)ccc21` [Example 17, 2-amino-5-(1-methyl-1H-pyrazol-4-yl)-N-[(1S,2S)-2-{[4-(1,3,3-trimethyl-2,3-dihydro-1H-indol-5-yl)phenyl]methoxy}cyclopentyl]pyridine-3-carboxamide], for which the half-inhibitory concentration (IC50) at human MER (528-end) was 10 to 100 nM; against human AXL (473-end), 10 to 100 nM; on human TYRO3 (455-end) it was over 1000 nM.
Turning to `Cn1cc(-c2cnc(N)c(C(=O)N[C@H]3COC[C@@H]3OCc3ccc(-c4ccc5c(c4)CCC5N4CCN(CCO)CC4)cc3)c2)cn1` (stereo partly drawn) [Example 18, 2-amino-N-{(3S,4R)-4-[(4-{1-[4-(2-hydroxyethyl)piperazin-1-yl]-2,3-dihydro-1H-inden-5-yl}phenyl)methoxy]oxolan-3-yl}-5-(1-methyl-1H-pyrazol-4-yl)pyridine-3-carboxamide], the results for the IC50 on human MER (528-end), at human AXL (473-end) and at human TYRO3 (455-end) were under 10 nM, 10 to 100 nM and 100 to 1000 nM, respectively.
The corresponding values for `Nc1ncc(-c2ccc(F)nc2)cc1C(=O)N[C@H]1CCC[C@@H]1OCc1ccc(-c2ccc3c(c2)CCC3N2CCN(CCO)CC2)cc1` (stereo partly drawn) [Example 19, 6-amino-6′-fluoro-N-{(1S,2S)-2-[(4-{1-[4-(2-hydroxyethyl)piperazin-1-yl]-2,3-dihydro-1H-inden-5-yl}phenyl)methoxy]cyclopentyl}[3,3′-bipyridine]-5-carboxamide] are under 10 nM, under 10 nM and 100 to 1000 nM.
Taken in the same sequence, the figures for `Nc1ncc(-c2ccc(F)nc2)cc1C(=O)N[C@H]1COC[C@@H]1OCc1ccc(-c2ccc3c(c2)CCC3N2CCN(CCO)CC2)cc1` (stereo partly drawn) [Example 20, 6-amino-6′-fluoro-N-{(3S,4R)-4-[(4-{1-[4-(2-hydroxyethyl)piperazin-1-yl]-2,3-dihydro-1H-inden-5-yl}phenyl)methoxy]oxolan-3-yl}[3,3′-bipyridine]-5-carboxamide] were under 10 nM, 10 to 100 nM and over 1000 nM.
`Nc1ncc(C(F)(F)F)cc1C(=O)N[C@H]1CCC[C@@H]1OCc1ccc(-c2ccc3c(ccn3C3CCN(CCO)CC3)c2)cc1` [Example 21, 2-amino-N-{(1S,2S)-2-[(4-{1-[1-(2-hydroxyethyl)piperidin-4-yl]-1H-indol-5-yl}phenyl)methoxy]cyclopentyl}-5-(trifluoromethyl)pyridine-3-carboxamide]: the values for the IC50 on human MER (528-end), at human AXL (473-end) and at human TYRO3 (455-end) were under 10 nM, 10 to 100 nM and over 1000 nM, respectively.
Taken in the same sequence, the figures for `Nc1ncc(-c2ccc(F)nc2)cc1C(=O)N[C@H]1CCC[C@@H]1OCc1ccc(-c2ccc3c(ccn3C3CCN(CCO)CC3)c2)cc1` [Example 22, 6-amino-6′-fluoro-N-{(1S,2S)-2-[(4-{1-[1-(2-hydroxyethyl)piperidin-4-yl]-1H-indol-5-yl}phenyl)methoxy]cyclopentyl}[3,3′-bipyridine]-5-carboxamide] were under 10 nM, 10 to 100 nM and 100 to 1000 nM.
Taken in the same sequence, the figures for `Cn1cc(-c2cnc(N)c(C(=O)N[C@H]3CCC[C@@H]3OCc3ccc(-c4ccc5c(c4)C(C)(C)CN5C4CCN(CC(O)CO)CC4)cc3)c2)cn1` (stereo partly drawn) [Example 23, 2-amino-N-{(1S,2S)-2-[(4-{1-[1-(2,3-dihydroxypropyl)piperidin-4-yl]-3,3-dimethyl-2,3-dihydro-1H-indol-5-yl}phenyl)methoxy]cyclopentyl}-5-(1-methyl-1H-pyrazol-4-yl)pyridine-3-carboxamide] were under 10 nM, under 10 nM and under 10 nM.
As for `Nc1ncc(C(F)(F)F)cc1C(=O)N[C@H]1COC[C@@H]1OCc1ccc(-c2ccc3c(ccn3C3CCN(CCO)CC3)c2)cc1` [Example 24, 2-amino-N-{(3S,4R)-4-[(4-{1-[1-(2-hydroxyethyl)piperidin-4-yl]-1H-indol-5-yl}phenyl)methoxy]oxolan-3-yl}-5-(trifluoromethyl)pyridine-3-carboxamide], the IC50 on human MER (528-end) is 10 to 100 nM; against human AXL (473-end) it was 100 to 1000 nM; on human TYRO3 (455-end), over 1000 nM.
Taken in the same sequence, the figures for `Nc1ncc(-c2ccc(F)nc2)cc1C(=O)N[C@H]1COC[C@@H]1OCc1ccc(-c2ccc3c(ccn3C3CCN(CCO)CC3)c2)cc1` [Example 25, 6-amino-6′-fluoro-N-{(3S,4R)-4-[(4-{1-[1-(2-hydroxyethyl)piperidin-4-yl]-1H-indol-5-yl}phenyl)methoxy]oxolan-3-yl}[3,3′-bipyridine]-5-carboxamide] were under 10 nM, 10 to 100 nM and over 1000 nM.
As for `Cn1cc(-c2cnc(N)c(C(=O)N[C@H]3CCC[C@@H]3OCc3ccc(-c4ccc5c(C6CCN(CCO)CC6)cn(C)c5c4)cc3)c2)cn1` [Example 26, 2-amino-N-{(1S,2S)-2-[(4-{3-[1-(2-hydroxyethyl)piperidin-4-yl]-1-methyl-1H-indol-6-yl}phenyl)methoxy]cyclopentyl}-5-(1-methyl-1H-pyrazol-4-yl)pyridine-3-carboxamide], the IC50 at human MER (528-end) is under 10 nM; at human AXL (473-end), 10 to 100 nM; at human TYRO3 (455-end), over 1000 nM.
The corresponding values for `Cn1cc(-c2cnc(N)c(C(=O)N[C@H]3CCC[C@@H]3OCc3ccc(-c4ccc5c(c4)C(C)(C)CN5C4CCN(CC(N)=O)CC4)cc3)c2)cn1` [Example 27, 2-amino-N-{(1S,2S)-2-[(4-{1-[1-(2-amino-2-oxoethyl)piperidin-4-yl]-3,3-dimethyl-2,3-dihydro-1H-indol-5-yl}phenyl)methoxy]cyclopentyl}-5-(1-methyl-1H-pyrazol-4-yl)pyridine-3-carboxamide] are under 10 nM, 10 to 100 nM and 100 to 1000 nM.
Taken in the same sequence, the figures for `Cn1cc(-c2cnc(N)c(C(=O)N[C@H]3CCC[C@@H]3OCc3ccc(-c4ccc5c(c4)C4(CC4)CN5C4CCN(CCO)CC4)cc3)c2)cn1` [Example 28, 2-amino-N-{(1S,2S)-2-[(4-{1′-[1-(2-hydroxyethyl)piperidin-4-yl]-1′,2′-dihydrospiro[cyclopropane-1,3′-indol]-5′-yl}phenyl)methoxy]cyclopentyl}-5-(1-methyl-1H-pyrazol-4-yl)pyridine-3-carboxamide] were 10 to 100 nM, 10 to 100 nM and 10 to 100 nM.
